The target of this assay is HPK full length, T165E S171E (Homo sapiens (Human), UniProt Q92918, S171E/T165E). Briefly: HPK1-FL HTRF enzymatic assay ("HTRF"). Format: biochemical. The note with it: ATP 1 mM, read-out: HPK1 Ki. The gist of the method:
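HTRF detection of phosphorylated biotin-SLP-76 used Eu-anti-pSLP76 antibody and SA-XL665, read after 60 min. The kinase reaction ran 60 min at […], following a 30-min compound preincubation with the full-length enzyme.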
In general terms: Time-resolved FRET reads energy transfer from a long-lived donor to a nearby acceptor.

Counter-ions that a name gives are not always drawn.

HPK full length, T165E S171E, sequence (Q92918 whole entry T165E/S171E, looked up): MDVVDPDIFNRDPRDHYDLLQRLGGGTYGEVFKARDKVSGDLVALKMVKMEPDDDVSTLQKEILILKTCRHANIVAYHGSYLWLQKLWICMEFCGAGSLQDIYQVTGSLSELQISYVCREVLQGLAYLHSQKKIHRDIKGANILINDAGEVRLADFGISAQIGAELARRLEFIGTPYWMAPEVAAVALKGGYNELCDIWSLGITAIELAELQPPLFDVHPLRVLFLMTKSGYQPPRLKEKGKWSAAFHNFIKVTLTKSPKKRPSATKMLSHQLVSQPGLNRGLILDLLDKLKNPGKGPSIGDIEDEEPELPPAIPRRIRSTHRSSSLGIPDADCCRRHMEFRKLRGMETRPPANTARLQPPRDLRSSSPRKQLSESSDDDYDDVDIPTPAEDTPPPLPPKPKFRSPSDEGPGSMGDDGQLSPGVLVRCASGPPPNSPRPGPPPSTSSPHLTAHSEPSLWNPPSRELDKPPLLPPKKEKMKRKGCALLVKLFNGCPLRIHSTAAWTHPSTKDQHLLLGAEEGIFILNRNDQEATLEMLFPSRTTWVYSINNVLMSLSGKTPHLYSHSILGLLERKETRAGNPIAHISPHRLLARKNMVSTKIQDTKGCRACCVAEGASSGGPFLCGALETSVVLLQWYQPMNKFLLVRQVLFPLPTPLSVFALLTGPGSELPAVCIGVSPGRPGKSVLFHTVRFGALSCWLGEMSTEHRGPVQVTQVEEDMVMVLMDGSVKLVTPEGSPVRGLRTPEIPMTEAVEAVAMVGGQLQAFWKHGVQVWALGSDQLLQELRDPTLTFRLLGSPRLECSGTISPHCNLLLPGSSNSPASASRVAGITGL

In the case of `Cc1c(-c2cc3cc(NC(=O)OC4CN(CCF)C4)ncc3c(N)c2F)cnc2c1NCCO2` [Compound 521, 1-(2-Fluoroethyl)azetidin-3-yl (8-amino-7-fluoro-6-(8-methyl-2,3-dihydro-1H-pyrido[2,3-b][1,4]oxazin-7-yl)isoquinolin-3-yl)carbamate], the Ki (commonly a dissociation constant, usually derived from enzyme kinetics or from competition with a known ligand) worked out at 0.11 nM. In the case of `CN[C@H]1CCCC[C@@H]1OC(=O)Nc1cc2cc(-c3cnc4c(c3C)NCCO4)c(F)c(N)c2cn1` (single isomer, unassigned) [Compound 415a] it was 3 nM.

Consider `Cc1c(-c2cc3cc(NC(=O)N[C@H]4C[C@H](F)C4)ncc3c(N)c2F)cnc2c1NCCC2` [Compound 732a, 1-(8-amino-7-fluoro-6-(4-methyl-5,6,7,8-tetrahydro-1,5-naphthyridin-3-yl)isoquinolin-3-yl)-3-((1r,3r)-3-fluorocyclobutyl)urea], for which the Ki was < 0.013 nM. In the case of `Cc1c(-c2cc3cc(NC(=O)O[C@@H]4COC[C@H]4C4CC4)ncc3c(N)c2F)cnc2c1NCCO2` (single isomer, unassigned) [Compound 516b] it was < 0.013 nM; in that of `Cc1c(-c2cc3cc(NC(=O)OC4CN(S(C)(=O)=O)C4)ncc3c(N)c2F)cnc2c1NCCC2` [Compound 493, 1-(Methylsulfonyl)azetidin-3-yl (8-amino-7-fluoro-6-(4-methyl-5,6,7,8-tetrahydro-1,5-naphthyridin-3-yl)isoquinolin-3-yl)carbamate], 0.064 nM. Then `Cc1c(-c2cc3cc(NC(=O)OC4CN(S(=O)(=O)C5CC5)C4)ncc3c(N)c2F)cnc2c1NCCO2` [Compound 524, (1-Cyclopropylsulfonylazetidin-3-yl)-N-[8-amino-7-fluoro-6-(8-methyl-2,3-dihydro-1H-pyrido[2,3-b][1,4]oxazin-7-yl)-3-isoquinolyl]-carbamate hydrochloride], with 0.02 nM; and `Cc1c(-c2cc3cc(NC(=O)OC4CCOCC4)ncc3c(N)c2F)cnc2c1NCCC2O` (stereo not shown) [Compound 413, Tetrahydro-2H-pyran-4-yl (8-amino-7-fluoro-6-(8-hydroxy-4-methyl-5,6,7,8-tetrahydro-1,5-naphthyridin-3-yl)isoquinolin-3-yl)carbamate], with 0.65 nM.

In the case of `Cc1c(-c2cc3cc(NC(=O)O[C@H]4C[C@H]([C@H](C)O)C4)ncc3c(N)c2F)cnc2c1NCCO2` (single isomer, unassigned) [Compound 573b], the inhibitory constant (Ki) was 0.019 nM.

Consider `Cc1c(-c2cc3cc(NC(=O)O[C@@H]4CCO[C@H]4C)ncc3c(N)c2F)cnc2c1NCCO2` (racemic) [Compound 510a, (2S,3R)-2-methyltetrahydrofuran-3-yl (8-amino-7-fluoro-6-(8-methyl-2,3-dihydro-1H-pyrido[2,3-b][1,4]oxazin-7-yl)isoquinolin-3-yl)carbamate], for which the Ki came to 0.395 nM.

As to `CCN1C[C@H](OC(=O)Nc2cc3cc(-c4cnc5c(c4C)NCCO5)c(F)c(N)c3cn2)CC1=O` (single isomer, unassigned) [Compound 478a], the Ki came out at 0.25 nM. On to `Cc1c(-c2cc3cc(NC(=O)OC4CC(O)C4)ncc3c(N)c2F)cnc2c1NC[C@H](C)C2` (stereo partly drawn) [Compound 560b, (1s,3s)-3-Hydroxycyclobutyl (8-amino-6-((R)-4,7-dimethyl-5,6,7,8-tetrahydro-1,5-naphthyridin-3-yl)-7-fluoroisoquinolin-3-yl)carbamate], for which the Ki worked out at 0.32 nM. Consider `Cc1c(-c2cc3cc(NC(=O)OC4CCOCC4)ncc3c(N)c2F)cnc2c1[C@@H](O)CCO2` (single isomer, unassigned) [Compound 412a], for which the Ki was 41 nM. Then `Cc1c(-c2cc3cc(NC(=O)NC(C)C)ncc3c(N)c2F)cnc2c1NCCO2` [Compound 746, 1-(8-Amino-7-fluoro-6-(8-methyl-2,3-dihydro-1H-pyrido[2,3-b][1,4]oxazin-7-yl)isoquinolin-3-yl)-3-isopropylurea], with < 0.013 nM; and `Cc1c(-c2cc3cc(NC(=O)O[C@@H]4Cc5nccn5C4)ncc3c(N)c2F)cnc2c1NCCO2` (single isomer, unassigned) [Compound 504a], with < 0.013 nM.

Consider `Cc1c(-c2cc3cc(NC(=O)O[C@@H]4CCN(C5COC5)C[C@@H]4F)ncc3c(N)c2F)cnc2c1NCCO2` [Compound 445c, (3S,4R)-3-Fluoro-1-(oxetan-3-yl)piperidin-4-yl (8-amino-7-fluoro-6-(8-methyl-2,3-dihydro-1H-pyrido[2,3-b][1,4]oxazin-7-yl)isoquinolin-3-yl)carbamate], for which the Ki worked out at 0.015 nM.

In the case of `Cc1c(-c2cc3cc(NC(=O)O[C@H]4C[C@H](n5ccnc5)C4)ncc3c(N)c2F)cnc2c1NCCO2` [Compound 514a, (1r,3r)-3-(1H-Imidazol-1-yl)cyclobutyl (8-amino-7-fluoro-6-(8-methyl-2,3-dihydro-1H-pyrido[2,3-b][1,4]oxazin-7-yl)isoquinolin-3-yl)carbamate hydrochloride], the Ki was < 0.013 nM.

Turning to `CNC(=O)Nc1cc2cc(-c3cnc4c(c3C)NCCC4)c(F)c(N)c2cn1` [Compound 705, 1-[8-Amino-7-fluoro-6-(4-methyl-5,6,7,8-tetrahydro-1,5-naphthyridin-3-yl)-3-isoquinolyl]-3-methyl-urea], the Ki turned out to be 0.15 nM.

In the case of `Cc1c(-c2cc3cc(NC(=O)OC4CN(C5CC5)C4)ncc3c(N)c2F)cnc2c1NCCO2` [Compound 540, 1-Cyclopropylazetidin-3-yl (8-amino-7-fluoro-6-(8-methyl-2,3-dihydro-1H-pyrido[2,3-b][1,4]oxazin-7-yl)isoquinolin-3-yl)carbamate], the Ki came out at 0.021 nM. In the case of `CO[C@H]1C[C@H](NC(=O)Nc2cc3cc(-c4cnc5c(c4C)NCCO5)c(F)c(N)c3cn2)C1` [Compound 733a, 1-[8-Amino-7-fluoro-6-(8-methyl-2,3-dihydro-1H-pyrido[2,3-b][1,4]oxazin-7-yl)-3-isoquinolyl]-3-(3-methoxycyclobutyl)urea] it was < 0.013 nM; in that of `Cc1c(-c2cc3cc(NC(=O)O[C@H](C)CO)ncc3c(N)c2F)cnc2c1NCCO2` (single isomer, unassigned) [Compound 530a], 0.26 nM; in that of `Cc1c(-c2cc3cc(NC(=O)N[C@@H]4CCOC4)ncc3c(N)c2F)cnc2c1NCCO2` (single isomer, unassigned) [Compound 722a], < 0.013 nM.

Regarding `Cc1c(-c2cc3cc(NC(=O)O[C@H]4CN(C)C[C@@H]4C)ncc3c(N)c2F)cnc2c1NCCO2` (single isomer, unassigned) [Compound 442d], the Ki is 0.046 nM. In the case of `Cc1c(-c2cc3cc(NC(=O)OC4CC5(CCN(C6COC6)CC5)C4)ncc3c(N)c2F)cnc2c1NCCC2` [Compound 430, 7-(Oxetan-3-yl)-7-azaspiro[3.5]nonan-2-yl (8-amino-7-fluoro-6-(4-methyl-5,6,7,8-tetrahydro-1,5-naphthyridin-3-yl)isoquinolin-3-yl)carbamate] it was < 0.013 nM; in that of `Cc1c(-c2cc3cc(NC(=O)O[C@@H]4CCN([C@H]5CCOC5)C[C@@H]4F)ncc3c(N)c2F)cnc2c1NCCO2` [Compound 569a, (3S,4R)-3-Fluoro-1-((S)-tetrahydrofuran-3-yl)piperidin-4-yl (8-amino-7-fluoro-6-(8-methyl-2,3-dihydro-1H-pyrido[2,3-b][1,4]oxazin-7-yl)isoquinolin-3-yl)carbamate], 0.277 nM; in that of `CC[C@]1(O)C[C@H](OC(=O)Nc2cc3cc(-c4cnc5c(c4C)NCCO5)c(F)c(N)c3cn2)C1` [Compound 512a, (1s,3r)-3-Ethyl-3-hydroxycyclobutyl (8-amino-7-fluoro-6-(8-methyl-2,3-dihydro-1H-pyrido[2,3-b][1,4]oxazin-7-yl)isoquinolin-3-yl)carbamate], 0.015 nM. `Cc1c(-c2cc3cc(NC(=O)NC4CN(CC(F)(F)F)C4)ncc3c(N)c2F)cnc2c1NCCO2` [Compound 721, 1-(8-Amino-7-fluoro-6-(8-methyl-2,3-dihydro-1H-pyrido[2,3-b][1,4]oxazin-7-yl)isoquinolin-3-yl)-3-(1-(2,2,2-trifluoroethyl)azetidin-3-yl)urea]: the Ki was < 0.013 nM. As for `Cc1c(-c2cc3cc(NC(=O)O[C@H]4COC[C@@H]4C#N)ncc3c(N)c2F)cnc2c1NCCO2` (single isomer, unassigned) [Compound 538b], the Ki came out at 0.016 nM. In the case of `CO[C@H]1CCC[C@H]1NC(=O)Nc1cc2cc(-c3cnc4c(c3C)NCCO4)c(F)c(N)c2cn1` (single isomer, unassigned) [Compound 729b] it was 0.015 nM; in that of `Cc1c(-c2cc3cc(NC(=O)OC4CCC4)ncc3c(N)c2F)cnc2c1NCCO2` [Compound 487, Cyclobutyl (8-amino-7-fluoro-6-(8-methyl-2,3-dihydro-1H-pyrido[2,3-b][1,4]oxazin-7-yl)isoquinolin-3-yl)carbamate], < 0.013 nM; in that of `CCc1c(-c2cc3cc(NC(=O)O[C@@H]4CC(=O)N(C)C4)ncc3c(N)c2F)cnc2c1NCCO2` (single isomer, unassigned) [Compound 444a], < 0.013 nM. Then `Cc1c(-c2cc3cc(NC(=O)NC4CCCC4)ncc3c(N)c2F)cnc2c1NCCO2` [Compound 706, 1-(8-Amino-7-fluoro-6-(8-methyl-2,3-dihydro-1H-pyrido[2,3-b][1,4]oxazin-7-yl)isoquinolin-3-yl)-3-cyclopentylurea], with < 0.013 nM. In the case of `CCC(=O)N1CC(OC(=O)Nc2cc3cc(-c4cnc5c(c4C)NCCC5)c(F)c(N)c3cn2)C1` [Compound 492, 1-Propionylazetidin-3-yl (8-amino-7-fluoro-6-(4-methyl-5,6,7,8-tetrahydro-1,5-naphthyridin-3-yl)isoquinolin-3-yl)carbamate] it was 0.055 nM; in that of `Cc1c(-c2cc3cc(NC(=O)N[C@H]4COC[C@H]4F)ncc3c(N)c2F)cnc2c1NCCO2` (single isomer, unassigned) [Compound 724a], 0.019 nM. `Cc1c(-c2cc3cc(NC(=O)N[C@H]4CCN(C)C[C@@H]4F)ncc3c(N)c2F)cnc2c1NCCO2` (single isomer, unassigned) [Compound 703b]: the Ki is < 0.013 nM.

The values above are taken from patent US11612606B2, “8-aminoisoquinoline compounds and uses thereof” (priority 2018, dated 2023).
